Experimental findings from patent US20070292888A1, “Methods for Measuring Enzyme Activities in Cells, Blood, Tumors and Tissues” (GEN-PATH PHARMACEUTICALS, INC., priority 2004, published 2007) are described below.

By IC50 is commonly meant the concentration needed to halve the response being measured.

The target in this assay is T1, TK (Homo sapiens, UniProt P29401).
T1 sequence (P29401 1-623): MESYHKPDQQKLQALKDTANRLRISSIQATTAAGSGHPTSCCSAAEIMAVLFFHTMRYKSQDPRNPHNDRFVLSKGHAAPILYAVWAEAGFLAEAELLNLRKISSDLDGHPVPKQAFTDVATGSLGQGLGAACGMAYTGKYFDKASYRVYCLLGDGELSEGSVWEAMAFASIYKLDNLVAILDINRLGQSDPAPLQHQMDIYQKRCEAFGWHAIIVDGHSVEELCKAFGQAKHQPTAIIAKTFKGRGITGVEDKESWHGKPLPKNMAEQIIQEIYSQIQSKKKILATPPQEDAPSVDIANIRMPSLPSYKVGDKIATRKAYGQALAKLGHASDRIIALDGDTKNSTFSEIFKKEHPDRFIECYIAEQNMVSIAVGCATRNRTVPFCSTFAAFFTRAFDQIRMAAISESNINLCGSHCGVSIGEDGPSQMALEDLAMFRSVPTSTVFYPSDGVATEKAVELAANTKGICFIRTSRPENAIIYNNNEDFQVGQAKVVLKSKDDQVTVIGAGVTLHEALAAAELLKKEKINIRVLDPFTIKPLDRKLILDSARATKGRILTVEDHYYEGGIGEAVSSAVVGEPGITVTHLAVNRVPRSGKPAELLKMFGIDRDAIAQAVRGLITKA
In words: Cell-based TK inhibition in thiamine-depleted media, 96-well format. Further details: endogenous in cells. Particulars: treated cells, 48 hours treatment. On the procedure:
We determined the IC50 of compounds that inhibit the activity of the TPP utilizing enzymes TK, kGDH and PDH in a convenient 96-well format using an optimized version of the method described in the previous Examples.
The high thiamine levels in conventional cell culture media (e.g., DMEM (12 μM), RPMI (3 μM)) masks the inhibitory effect of such inhibitors. To measure the IC50 of such inhibitors, thus, a thiamine depleted DMEM, containing all the ingredients of normal DMEM except for thiamine (HyClone, custom order), was used. Thiamine-depleted media (TDM) is made up with thiamine-depleted DMEM, 10% FBS, which contains negligible amount of thiamine (estimated to be ˜3-5% nM) and 1% Penicillin-streptomycin.
Log-phase growing cells were trypsinized and resuspended in TDM. Optimization of the initial cell counts is recommended for each cell line to ensure that enzyme activity can be observed at the beginning and that healthy growth can continue. For cell lines that have a doubling time of approximately 24 hours and cellular transketolase levels high enough to be reliably detected with five thousand (5K) cells such as HCT116 and HT1080, 8K cells are recommended.
Media containing 8K cells (95 μl) were used to seed individual wells in a 96-well clear-bottom cell cultured treated sterile plate. […] Enzymatic inhibition was expressed as percent of control wells that were not treated with compounds. […]

With `Cc1ccc(C[n+]2csc(CCO)c2C)c(N)n1` [N3PT, 3-[(2-amino-6-methyl-3-pyridinyl)methyl]-5-(2-hydroxyethyl)-4-methyl thiazolium], the IC50 is 20 nM.
